Our source for the mass density values is the NIST ThermoML archive (doi:10.1016/j.fluid.2015.06.034).

Numbers after ± are expanded uncertainties.

The nature of this data set: wn = mass fraction of the nth substance listed. The following applies: Liquid, Vibrating tube method, w1 = 0.45.

The term mass density denotes mass per unit of volume.

Consider `CN(CCO)CCO` [N-methyldiethanolamine] + O, for which the mass density runs as follows: (303.15 K) 1037.2 ± 5 kg/m3; (323.15 K) 1024.8 ± 5 kg/m3; (343.15 K) 1011.5 ± 5 kg/m3; (363.15 K) 996.4 ± 5 kg/m3.
